# Measured values reported in patent US20240082242A1, “COMBINATION THERAPIES” (IMBRIA PHARMACEUTICALS, INC., priority 2021, published 2024).
# Tests used:
# explanted mouse hearts = experiment: Langendorff ischemia-reperfusion protocol; settings: for infarct size: 20 μM (each) perfusion, triphenyltetrazolium staining, control 68%; for reduction of myocardial infarct size: 20 μM, vs control
# Description: Studies were conducted to evaluate the effect of CV-8814, a pFOX inhibitor, on protecting heart tissue from ischemia/reperfusion (I/R) injury. Similar studies were performed with trimetazidine (TMZ) as a representative pFOX reference compound. Studies were performed with TMZ alone and TMZ in combination with the metabolic enhancers (e.g., nicotinic acid) for a comparison of single agent and combination agent pharmacologic potencies. FIG. 25 is a schematic of the Langendorff Ischemia-Reperfusion protocol used to test the ability of various compounds to protect the heart from ischemic injury. Test compounds were dissolved at 20 μM in Krebs-Henseleit buffer and perfused through the tissue of mouse hearts at a constant pressure starting at time 0. For each treatment group, 10-18 hearts were tested. A Mikro-tip catheter was inserted into left ventricles to measure cardiac functions, including heart rate, coronary flow, left ventricular systolic and end-diastolic pressure, at the end of the baseline perfusion at 20 minutes. […] At the end of perfusion, hearts were cross-sectioned into five slices, and infarct size was measured by computerized planimetry of triphenyltetrazolium stained heart tissue sections. The concept of combining a pFOX inhibitor with metabolic enhancers (e.g. nicotinamide, nicotinic acid, and succinate) was evaluated in combination Langendorff I/R studies. The combinations included TMZ/nicotinamide/succinate (all at a concentration of 20 μM; coded TNS) and TMZ/nicotinic acid/succinate (all at a concentration of 20 μM; coded TNC).
# [1] = test system: TAC-induced heart failure in mice; experiment: Transverse aortic constriction (TAC) model of heart failure; type: in vivo, mouse; settings: for fibrosis of myocardial tissue after six weeks: Masson's trichome, percentage of fibrotic heart tissue, control 10.7±1; for left ventricular ejection fraction (EF) throughout the six-week study: minipump; for left ventricular fractional shortening (FS) at Week 6: CV-8972 10, CV-8814 7.5 mg/kg/day, control 34%±3%; for isovolumic relaxation time (IVRT) at Week 6: control 35±1; for isovolumic relaxation time (IVRT) at the three-week assessment: control 36±1
# Description: Studies were conducted to evaluate and compare the efficacy of the reference compound TMZ with CV-8814 and CV-1018972 on ventricular remodeling, preservation of heart function and prevention of fibrosis in a transverse aortic constriction (TAC) model of heart failure in mice.
# FIG. 30 is a schematic of the transverse aortic constriction (TAC) protocol used to test the ability of various compounds to protect the heart against heart failure. The aortic arc was exposed via midline incision in the chest cavity of anesthetized mice. A 27-gauge needle was tied against the transverse aorta and then promptly removed to create a ligature constriction. In vivo cardiac function was assessed by transthoracic echocardiography performed at 24-hour, 3-week, and 6-week time-points after TAC. Ventricular remodeling was determined by evaluation of heart weights (HW) and heart weight to body weight ratios (HW/BW). At study termination, hearts were excised, fixed, sectioned at 6 μm and stained with Masson's trichome. The area of fibrosis in myocardial tissue was measured by computerized planimetry on five random fields per heart. A total of 65 to 75 fields were analyzed per treatment group and differences were analyzed by Student's t-test.
# Three separate studies were performed to evaluate the efficacy of single agents and combinations with metabolic enhancers in the TAC model of heart failure. In the first study, mice were treated with either trimetazidine alone or trimetazidine+nicotinamide+succinate. In the second study, mice were treated with CV-8814 alone or trimetazidine+nicotinic acid+succinate. In the third study, mice were treated with […], CV-8814, or CV-8972. Overall, the activities of trimetazidine, CV-8814, and CV-8972 on most study endpoints were in good agreement across the three studies. In the third study, the three compounds were analyzed at equivalent mg/kg/day doses on a formula weight basis: 6 mg/kg/d for trimetazidine, 7.5 mg/kg/day for CV-8814; and 10 mg/kg/day for CV-8972. Therefore, the results from the third study are summarized here.
# [2] = test system: cardiac glucose metabolism; experiment: PET imaging of 18F-FDG uptake after CV-8972 injection; type: in vivo, rat
# Text: (§1) The effects of CV-8972, a partial fatty acid oxidation inhibitor, on glucose and fatty acid metabolism were investigated using non-invasive positron emission tomography (PET) imaging. The PET radiotracer ^18F fluorodeoxyglucose (FDG), a radiolabeled glucose analog, was used to evaluate cardiac glucose metabolism, and the PET radiotracer ^18F fluoro-6-thia-heptadecanoic acid (FTHA), a radiolabeled long-chain fatty acid (LCFA) analog, was used to evaluate fatty acid beta oxidation. Both radiotracers are “entrapped” in cells in a way that is proportional to either glucose or fatty acid metabolism. For example, high ^18F-FDG or ^18F-FTHA signal indicates high glucose or fatty acid metabolism, respectively, while, conversely, diminished uptake indicates lower metabolism.
# (§2) PET imaging with ^18F-FDG and ^18F-FTHA was performed in healthy rats. PET images were acquired dynamically for 120 minutes after tracer injection to capture dynamic changes in cardiac glucose and fatty acid metabolism. For each tracer, animals were imaged twice, once after injection of vehicle (phosphate buffered saline, PBS) or CV-8972 (80 mg/3 mL/kg), subcutaneously injected to the back of animals 15 min prior to PET imaging.
# (§3) FIG. 1 is a schematic of the positron emission tomography (PET) imaging study design used to monitor the uptake of ^18F-fluorodeoxyglucose (^18F-FDG) and ^18F-14(R,S)-(18)F-fluoro-6-thia-heptadecanoic acid (^18F-FTHA) into heart tissue of rats in response to treatment with CV-8972. To monitor uptake of ^18F-FDG, rats were fasted for 16 hours prior to day 1. On day 1, rats were given phosphate-buffered saline (PBS) at time 0, and 15 minutes later ^18F-FDG was administered and traced in vivo by PET for two hours following administration. Rats were again fasted for 16 hours prior to day 3. On day 3, rats were given CV-8972 at time 0, and 15 minutes later ^18F-FDG was administered and traced in vivo by PET for two hours following administration. Immediately following the second PET scan, the animals were sacrificed, and the levels of gamma radioactivity in the blood, heart, and skeletal muscle were measured. To monitor uptake of ^18F-FTHA, rats were allowed to eat prior to day 1. On day 1, rats were given PBS at time 0, and 15 minutes later ^18F-FTHA was administered and traced in vivo by PET for two hours following administration. Rats were allowed to eat prior to day 3. On day 3, rats were given CV-8972 at time 0, and 15 minutes later ^18F-FTHA was administered and traced in vivo by PET for two hours following administration. Immediately following the second PET scan, the animals were sacrificed, and the levels of gamma radioactivity in the blood, heart, and skeletal muscle were measured.
# (§4) Dynamic positron emission tomography/computed tomography (PET/CT) imaging was obtained with a Mediso nanoScan 122S PET/CT system. Cardiac glucose and fatty acid metabolisms were visualized by tracking ^18F-FDG (NCM-USA LLC, NY, USA) and ^18F-FTHA (Department of Radiology, New York University School of Medicine, NY, USA), respectively. Before the ^18F-FDG scan, rats were fasted overnight for at least 16 hours to minimize the physiological uptake of the radiotracer to cardiomyocyte. Either vehicle (phosphate buffered saline) or CV-8972 (80 mg/3 mL/kg) was subcutaneously injected to the back of animals 15 min prior to PET imaging. Animals were then placed on the scanner, and high-resolution CT images was obtained. Following, dynamic PET was started at the same time as the injection of ^18F-FDG (37 MBq, 1 mCi/0.5 mL/body) via tail vein and recorded for 120 min. Each animal underwent 2 scan sessions, one after vehicle injection and another after CV-8972 injection, with 2 or more days interval (average 2.9 days, 2-6 days). The order of the 2 imaging sessions was randomized among rats. For ^18F-FTHA (37 MBq, 1 mCi/0.5 mL/body), animals received 2 scan sessions under same conditions as those for ^18F-FDG except for fed condition. […]
# [3] = test system: fatty acid beta oxidation; experiment: PET imaging of 18F-FTHA uptake after CV-8972 injection; type: in vivo, rat
# Text: as §1, §2, §3, §4
# [4] = test system: radioactivity in the heart, skeletal muscle, and blood; experiment: Ex vivo quantification of radiotracer uptake by gamma counting; type: in vivo, rat
# Description: Shortly after the final PET/CT scan, blood was taken from abdominal vein under anesthesia with isoflurane (3-5%), and then animals were euthanized by exsanguination. After thorough perfusion with PBS, the heart and skeletal muscle (right brachium) were harvested. Radioactivity in the heart, muscle, and blood was determined with a Wizard2 2480 automatic gamma counter (Perkin Elmer, Waltham, MA) and % ID/g was calculated for each organ.
# The radioactivity in the heart, skeletal muscle, and blood was also determined with a gamma counter shortly after PET/CT imaging for further ex vivo validation.
# [5] = mouse, iv, 10 mg/kg
# [6] = 20 μM perfusion, initial single agent study
# [7] = static analysis at 30 minutes, CV-8972 vs saline
# [8] = two-compartment model, CV-8972 80 mg/kg s.c. vs PBS
# [9] = CV-8972 80 mg/kg s.c. vs PBS, fed rats
# [10] = gamma counter shortly after PET/CT, CV-8972 80 mg/kg s.c., mean±SD
# [11] = gamma counting, CV-8972 vs control
compound,measurement,setting,value
"COc1ccc(CN2CCNCC2)c(OC)c1OC [TMZ, trimetazidine]",infarct size,explanted mouse hearts,56±3%
same,LVDP,"explanted mouse hearts; 20 μM TMZ alone, separate study, printed as TMZ vs. control",49±5 mm Hg
same,LVDP at T20,"explanted mouse hearts; 20 μM each, combination study",56±6 mm Hg
same,LVDP at T170,"explanted mouse hearts; 20 μM each, combination study",49±5 mm Hg
same,reduction of myocardial infarct size,explanted mouse hearts,~9%
same,fibrosis of myocardial tissue after six weeks,[1],7.6±1%
same,diastolic function during TAC-induced heart failure,[1]; TMZ 6 mg/kg/d,did not preserve diastolic function
same,effect on FS,[1]; TMZ 6 mg/kg/d,did not have a significant effect
same,left ventricular ejection fraction (EF) throughout the six-week study,[1]; third study,neither TMZ nor nicotinic acid had a beneficial effect
"COc1ccc(CN2CCN(CCO)CC2)c(OC)c1OC [CV-8814, 2-[4-[(2,3,4-trimethoxyphenyl)methyl]piperazin-1-yl]ethanol]",infarct size,explanted mouse hearts,52±4%
same,left ventricular developed pressure (LVDP) at 20 min,explanted mouse hearts; [6],48±8 mmHg
same,left ventricular developed pressure (LVDP) at 170 min,explanted mouse hearts; [6],63±5 mm Hg
same,coronary flow at the end of the reperfusion period,"explanted mouse hearts; 20 μM perfusion, initial single agent study, control 54±6",90±14 μl/mL
same,reduction of myocardial infarct size,explanted mouse hearts,~16%
same,left ventricular fractional shortening (FS) at Week 6,[1],44%±3%
same,fibrosis of myocardial tissue after six weeks,[1],6.6±0.6%
same,isovolumic relaxation time (IVRT) at Week 6,[1],28 ± 2 ms
same,isovolumic relaxation time (IVRT) at the three-week assessment,[1],33 ± 1 ms
same,left ventricular ejection fraction (EF) throughout the six-week study,[1]; third study,preserved
"O=C(O)c1cccnc1 [Nicotinic acid, nicotinic acid, reference compound]",fibrosis of myocardial tissue after six weeks,[1],8.2±1%
same,left ventricular ejection fraction (EF) throughout the six-week study,[1]; third study,neither TMZ nor nicotinic acid had a beneficial effect
"COc1ccc(CN2CCN(CCOC(=O)c3cccnc3)CC2)c(OC)c1OC [CV-8972, 2-[4-[(2,3,4-trimethoxyphenyl)methyl]piperazin-1-yl]ethyl pyridine-3-carboxylate]",average SUV of 18F-FDG in the heart at 120 min,"[2]; CV-8972 80 mg/3 mL/kg s.c. 15 min before PET, fasted healthy rats, mean±SD",12.56±7.82
same,"18F-FDG signal in the blood, single dynamic frames",[2]; CV-8972 80 mg/kg s.c. vs PBS,did not clearly affect
same,"18F-FDG signal in the skeletal muscle and blood, last 30 minutes (90-120 minutes)",[2]; CV-8972 80 mg/kg s.c. vs PBS,slightly lower signal
same,"18F-FDG uptake in skeletal muscle, single dynamic frames",[2]; CV-8972 80 mg/kg s.c. vs PBS,slightly lower
same,"18F-FDG uptake in the myocardium, last 30 minutes of PET acquisition (90-120 minutes)",[2]; CV-8972 80 mg/kg s.c. vs PBS,significantly higher
same,fold increase of heart 18F-FDG SUV at 120 min over control group,"[2]; CV-8972 80 mg/kg s.c., vs PBS control 0.89±0.62",approximately 14 fold
same,"change in 18F-FDG SUV in skeletal muscle, static analysis",[2]; [7],minimal change
same,"fold increase in 18F-FDG SUV in rat heart tissue, static analysis",[2]; [7],12 fold
same,18F-FDG myocardial uptake by kinetic modeling,[2]; [8],significantly higher myocardial uptake
same,18F-FDG skeletal muscle uptake by kinetic modeling,[2]; [8],lower
same,"18F-FTHA blood signal, last 30 minutes (90-120 minutes)",[3]; CV-8972 80 mg/kg s.c. vs PBS,unaffected
same,"18F-FTHA myocardial signal, last 30 minutes (90-120 minutes)",[3]; CV-8972 80 mg/kg s.c. vs PBS,slightly higher without reaching statistical significance
same,"18F-FTHA signal in the blood, single dynamic frames",[3]; [9],did not clearly affect
same,"18F-FTHA uptake in the heart, single dynamic frames",[3]; [9],no statistically significant changes
same,"18F-FTHA uptake in the skeletal muscle, single dynamic frames",[3]; [9],slightly higher uptake
same,"18F-FTHA signal in the skeletal muscle, last 30 minutes (90-120 minutes)","[3]; CV-8972 80 mg/kg s.c. vs PBS, reached statistical significance",slightly higher signal
same,initial fold increase of 18F-FTHA PET signal in heart after CV-8972 administration,"[3]; from 18F-FTHA circulating in the blood compartment, followed by washout over 120 min",~2 fold
same,18F-FTHA uptake into the myocardium and skeletal muscle by kinetic modeling,"[3]; three-compartment model, CV-8972 80 mg/kg s.c. vs PBS",significantly higher uptake
same,"mean radioactivity of the heart, 18F-FDG",[4]; [10],4.25±1.03 % ID/g
same,"mean radioactivity of the heart, 18F-FTHA",[4]; [10],1.98±0.53 % ID/g
same,radioactivity of skeletal muscle and blood vs control,"[4]; gamma counting, 18F-FDG and 18F-FTHA",did not show clear differences
same,"fold of heart radioactivity over control, 18F-FDG",[4]; [11],5.6 fold
same,"fold of heart radioactivity over control, 18F-FTHA",[4]; [11],3.6 fold
same,left ventricular fractional shortening (FS) at Week 3,"[1]; CV-8972 10 mg/kg/day, control 37%±3%",47%±3%
same,left ventricular fractional shortening (FS) at Week 6,[1],46%±3%
same,fibrosis of myocardial tissue after six weeks,[1],6.6±0.6%
same,isovolumic relaxation time (IVRT) at Week 6,[1],31 ± 2 ms
same,isovolumic relaxation time (IVRT) at the three-week assessment,[1],32 ± 1 ms
same,left ventricular ejection fraction (EF) throughout the six-week study,[1]; third study,preserved
same,heart weight to body weight ratio,"[1]; third study, CV-8972 10 mg/kg/day, control 9.1±0.5",7.4 ± 0.3 mg/g
same,left ventricular mass,"[1]; third study, CV-8972 10 mg/kg/day, control 195±12",156 ± 10 mg
same,heart weight,"[1]; third study, subcutaneous osmotic minipump, CV-8972 10 mg/kg/day, control 270±14",225 ± 11 mg
same,conversion of CV-8972 in vivo,[5],rapidly converted to CV-8814
